Assays:
Assay in all cases: KINOMEscan competition binding
Conditions in all cases: compound 10.0 µM
[1] = target: ACVR1B (human) (UniProt P36896)
[2] = target: ADCK4 (human) (UniProt Q96D53)
[3] = target: CAMK1G (human) (UniProt Q96NX5)
[4] = target: CDC42BPA (human) (UniProt Q5VT25)
[5] = target: CDK16 (human) (UniProt Q00536)
[6] = target: CDK8 (human) (UniProt P49336)
[7] = target: CHUK (human) (UniProt O15111)
[8] = target: CIT (human) (UniProt O14578)
[9] = target: CSNK1A1L (human) (UniProt Q8N752)
Sequence of CSNK1A1L (human) (Q8N752 whole entry, looked up): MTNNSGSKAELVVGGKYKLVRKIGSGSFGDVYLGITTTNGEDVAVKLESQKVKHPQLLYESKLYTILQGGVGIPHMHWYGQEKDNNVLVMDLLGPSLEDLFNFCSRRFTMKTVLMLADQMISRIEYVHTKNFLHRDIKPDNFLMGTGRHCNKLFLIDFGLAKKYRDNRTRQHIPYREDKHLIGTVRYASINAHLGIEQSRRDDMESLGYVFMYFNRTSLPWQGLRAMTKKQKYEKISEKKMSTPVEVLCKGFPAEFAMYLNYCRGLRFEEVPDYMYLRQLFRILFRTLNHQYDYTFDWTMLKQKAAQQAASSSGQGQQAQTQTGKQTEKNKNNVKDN

[10] = target: CSNK2A1 (human) (UniProt P68400)
[11] = target: EPHB2 (human) (UniProt P29323)
[12] = target: FER (human) (UniProt P16591)
[13] = target: FGR (human) (UniProt P09769)
[14] = target: FRK (human) (UniProt P42685)
[15] = target: GSK3B (human) (UniProt P49841)
[16] = target: ICK (human) (UniProt Q9UPZ9)
[17] = tested on: KIT (human), P10721 [D816H]
[18] = target: MAP2K1 (human) (UniProt Q02750)
[19] = target: MAP3K9 (human) (UniProt P80192)
[20] = target: MUSK (human) (UniProt O15146)
[21] = target: MYLK2 (human) (UniProt Q9H1R3)
[22] = target: NEK7 (human) (UniProt Q8TDX7)
Sequence of NEK7 (human) (Q8TDX7 whole entry, looked up): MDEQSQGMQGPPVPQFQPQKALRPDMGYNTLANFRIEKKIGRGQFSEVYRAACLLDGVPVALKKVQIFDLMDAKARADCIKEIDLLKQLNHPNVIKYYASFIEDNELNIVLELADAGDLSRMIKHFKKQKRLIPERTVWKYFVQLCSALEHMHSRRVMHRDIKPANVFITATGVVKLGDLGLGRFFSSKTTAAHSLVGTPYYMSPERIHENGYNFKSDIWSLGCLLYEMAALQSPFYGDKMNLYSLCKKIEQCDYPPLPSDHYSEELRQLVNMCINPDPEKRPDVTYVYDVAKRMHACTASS

[23] = target: NTRK1 (human) (UniProt P04629)
[24] = target: NTRK3 (human) (UniProt Q16288)
[25] = target: NUAK1 (human) (UniProt O60285)
[26] = target: PAK1 (human) (UniProt Q13153)
[27] = target: PHKG1 (human) (UniProt Q16816)
Sequence of PHKG1 (human) (Q16816 whole entry, looked up): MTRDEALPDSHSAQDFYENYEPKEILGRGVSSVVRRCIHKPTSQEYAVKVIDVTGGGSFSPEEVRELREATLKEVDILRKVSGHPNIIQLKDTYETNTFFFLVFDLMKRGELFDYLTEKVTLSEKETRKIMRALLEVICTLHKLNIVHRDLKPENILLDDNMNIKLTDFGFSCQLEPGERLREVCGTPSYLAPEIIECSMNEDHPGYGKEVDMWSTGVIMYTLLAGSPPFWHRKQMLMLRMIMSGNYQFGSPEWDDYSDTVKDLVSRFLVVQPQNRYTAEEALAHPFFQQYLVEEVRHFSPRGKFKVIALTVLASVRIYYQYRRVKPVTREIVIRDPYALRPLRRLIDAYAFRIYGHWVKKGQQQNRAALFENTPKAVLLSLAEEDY

[28] = target: PIK3CA (human) (UniProt P42336)
[29] = target: PLK1 (human) (UniProt P53350)
[30] = target: PLK3 (human) (UniProt Q9H4B4)
[31] = target: ROCK2 (human) (UniProt O75116)
[32] = target: ROS1 (human) (UniProt P08922)
[33] = target: RPS6KA2 KD2 (human) (UniProt Q15349)
Sequence of RPS6KA2 KD2 (human) (Q15349 whole entry, looked up): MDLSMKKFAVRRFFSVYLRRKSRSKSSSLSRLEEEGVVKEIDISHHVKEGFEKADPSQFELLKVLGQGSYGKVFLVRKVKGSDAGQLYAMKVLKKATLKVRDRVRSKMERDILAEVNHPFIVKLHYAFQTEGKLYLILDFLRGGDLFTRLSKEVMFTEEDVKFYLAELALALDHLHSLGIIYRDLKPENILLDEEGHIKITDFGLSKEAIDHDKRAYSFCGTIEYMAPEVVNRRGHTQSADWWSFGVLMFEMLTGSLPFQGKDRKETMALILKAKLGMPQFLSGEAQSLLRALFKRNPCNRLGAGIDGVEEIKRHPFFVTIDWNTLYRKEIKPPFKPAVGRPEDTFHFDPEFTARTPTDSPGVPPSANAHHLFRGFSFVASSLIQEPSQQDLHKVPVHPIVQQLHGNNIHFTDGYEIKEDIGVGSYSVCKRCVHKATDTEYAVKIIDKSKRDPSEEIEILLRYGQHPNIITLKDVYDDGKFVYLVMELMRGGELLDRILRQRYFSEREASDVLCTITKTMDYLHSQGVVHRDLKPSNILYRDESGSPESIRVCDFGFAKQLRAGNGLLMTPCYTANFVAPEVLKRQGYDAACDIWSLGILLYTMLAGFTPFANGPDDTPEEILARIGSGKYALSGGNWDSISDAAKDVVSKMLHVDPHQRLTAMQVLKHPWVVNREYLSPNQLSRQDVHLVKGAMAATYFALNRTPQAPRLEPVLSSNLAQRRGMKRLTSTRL

[34] = target: STK25 (human) (UniProt O00506)
[35] = target: STK32B (human) (UniProt Q9NY57)
Sequence of STK32B (human) (Q9NY57 whole entry, looked up): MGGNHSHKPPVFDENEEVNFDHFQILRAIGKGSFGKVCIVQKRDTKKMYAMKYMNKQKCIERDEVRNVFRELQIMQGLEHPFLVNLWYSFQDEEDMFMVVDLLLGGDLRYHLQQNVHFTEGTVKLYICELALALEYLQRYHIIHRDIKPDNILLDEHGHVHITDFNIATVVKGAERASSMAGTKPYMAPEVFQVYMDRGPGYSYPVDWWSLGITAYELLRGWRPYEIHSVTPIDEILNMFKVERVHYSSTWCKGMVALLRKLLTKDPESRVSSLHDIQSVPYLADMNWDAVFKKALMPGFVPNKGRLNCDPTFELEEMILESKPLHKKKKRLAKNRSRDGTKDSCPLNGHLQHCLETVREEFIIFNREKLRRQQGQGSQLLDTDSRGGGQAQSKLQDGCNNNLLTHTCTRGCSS

[36] = target: STK33 (human) (UniProt Q9BYT3)
[37] = target: STK4 (human) (UniProt Q13043)
[38] = target: TBK1 (human) (UniProt Q9UHD2)
Sequence of TBK1 (human) (Q9UHD2 whole entry, looked up): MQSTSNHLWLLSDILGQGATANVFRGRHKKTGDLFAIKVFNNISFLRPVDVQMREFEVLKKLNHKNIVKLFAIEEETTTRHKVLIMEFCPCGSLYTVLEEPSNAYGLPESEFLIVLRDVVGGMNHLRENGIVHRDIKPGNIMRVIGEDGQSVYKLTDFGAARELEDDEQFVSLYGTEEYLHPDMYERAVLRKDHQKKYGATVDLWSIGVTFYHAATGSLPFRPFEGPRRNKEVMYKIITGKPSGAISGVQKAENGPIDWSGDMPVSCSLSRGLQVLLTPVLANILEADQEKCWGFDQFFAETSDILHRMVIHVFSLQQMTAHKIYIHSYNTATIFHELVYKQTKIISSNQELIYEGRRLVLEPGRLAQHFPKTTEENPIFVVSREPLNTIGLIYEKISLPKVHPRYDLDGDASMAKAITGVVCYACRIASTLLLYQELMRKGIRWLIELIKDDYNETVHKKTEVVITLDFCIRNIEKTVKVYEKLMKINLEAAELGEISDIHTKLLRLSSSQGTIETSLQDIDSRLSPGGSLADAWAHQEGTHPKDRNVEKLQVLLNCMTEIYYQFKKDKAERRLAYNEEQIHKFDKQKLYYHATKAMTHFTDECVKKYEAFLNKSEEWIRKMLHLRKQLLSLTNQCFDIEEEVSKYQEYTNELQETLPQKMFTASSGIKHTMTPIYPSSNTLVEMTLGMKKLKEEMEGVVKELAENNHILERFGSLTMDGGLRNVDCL

[39] = target: TSSK1B (human) (UniProt Q9BXA7)
[40] = target: TYK2 JH2 pseudokinase (human) (UniProt P29597)

Sequence of CIT (human) (O14578 whole entry, looked up): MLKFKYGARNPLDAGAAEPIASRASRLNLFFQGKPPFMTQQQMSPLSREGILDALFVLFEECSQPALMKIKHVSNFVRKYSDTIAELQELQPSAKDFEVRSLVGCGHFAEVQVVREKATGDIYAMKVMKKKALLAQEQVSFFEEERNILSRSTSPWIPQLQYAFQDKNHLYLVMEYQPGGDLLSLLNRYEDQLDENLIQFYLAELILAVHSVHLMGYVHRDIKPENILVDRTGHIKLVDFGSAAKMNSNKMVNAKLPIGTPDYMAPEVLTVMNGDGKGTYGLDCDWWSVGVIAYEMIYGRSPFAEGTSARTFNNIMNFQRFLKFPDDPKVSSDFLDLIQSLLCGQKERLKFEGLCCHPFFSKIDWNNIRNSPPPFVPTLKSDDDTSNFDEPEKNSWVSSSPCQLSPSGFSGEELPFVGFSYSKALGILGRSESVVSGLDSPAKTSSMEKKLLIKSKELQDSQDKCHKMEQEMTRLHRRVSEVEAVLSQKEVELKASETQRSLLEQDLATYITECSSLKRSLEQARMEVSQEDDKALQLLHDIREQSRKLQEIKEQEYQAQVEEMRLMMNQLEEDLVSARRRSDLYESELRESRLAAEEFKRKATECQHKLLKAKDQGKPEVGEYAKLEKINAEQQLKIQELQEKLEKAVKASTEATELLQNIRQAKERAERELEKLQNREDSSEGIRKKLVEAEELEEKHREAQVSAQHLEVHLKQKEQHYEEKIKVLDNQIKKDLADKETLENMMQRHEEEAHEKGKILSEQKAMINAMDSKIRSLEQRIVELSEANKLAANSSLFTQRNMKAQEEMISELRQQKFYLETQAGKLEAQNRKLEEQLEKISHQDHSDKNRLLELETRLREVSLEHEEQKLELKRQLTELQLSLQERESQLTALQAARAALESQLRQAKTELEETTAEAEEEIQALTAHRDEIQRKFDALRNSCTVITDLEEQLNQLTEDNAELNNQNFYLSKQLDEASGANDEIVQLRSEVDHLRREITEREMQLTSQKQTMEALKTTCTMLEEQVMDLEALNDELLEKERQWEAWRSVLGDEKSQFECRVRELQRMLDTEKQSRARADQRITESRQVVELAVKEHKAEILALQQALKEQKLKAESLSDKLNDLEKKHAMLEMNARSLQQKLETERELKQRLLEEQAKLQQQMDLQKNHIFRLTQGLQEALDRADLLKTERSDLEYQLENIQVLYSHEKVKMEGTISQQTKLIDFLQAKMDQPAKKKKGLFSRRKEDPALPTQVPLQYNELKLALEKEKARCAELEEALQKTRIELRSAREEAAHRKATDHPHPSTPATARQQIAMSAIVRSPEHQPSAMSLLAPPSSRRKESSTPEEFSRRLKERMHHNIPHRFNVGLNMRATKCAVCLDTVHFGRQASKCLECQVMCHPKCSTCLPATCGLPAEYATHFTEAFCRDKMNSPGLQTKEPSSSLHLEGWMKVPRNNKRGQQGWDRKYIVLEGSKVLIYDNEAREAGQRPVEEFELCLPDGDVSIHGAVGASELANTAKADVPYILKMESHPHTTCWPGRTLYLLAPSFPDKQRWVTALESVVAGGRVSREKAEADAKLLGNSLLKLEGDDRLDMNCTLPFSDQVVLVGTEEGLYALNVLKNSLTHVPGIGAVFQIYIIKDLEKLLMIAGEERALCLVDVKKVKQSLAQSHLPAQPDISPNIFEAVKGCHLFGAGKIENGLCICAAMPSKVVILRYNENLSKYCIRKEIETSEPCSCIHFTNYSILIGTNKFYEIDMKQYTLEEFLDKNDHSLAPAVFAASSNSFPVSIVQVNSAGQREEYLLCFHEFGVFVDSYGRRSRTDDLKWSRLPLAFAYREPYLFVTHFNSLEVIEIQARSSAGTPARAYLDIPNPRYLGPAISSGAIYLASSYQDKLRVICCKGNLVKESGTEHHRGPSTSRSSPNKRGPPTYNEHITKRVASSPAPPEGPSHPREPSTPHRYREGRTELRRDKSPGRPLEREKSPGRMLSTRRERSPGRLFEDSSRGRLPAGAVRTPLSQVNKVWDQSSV

Which results are given for CC1=C(C(=O)Nc2cc3cn[nH]c3cc2F)C(c2ccc(C(F)(F)F)cc2)CC(=O)N1 (stereo not given)?
kinase still bound, per cent of control [1]: 94%; kinase still bound, per cent of control [2]: 94%; kinase still bound, per cent of control [3]: 81%; kinase still bound, per cent of control [4]: 79%; kinase still bound, per cent of control [5]: 100%; kinase still bound, per cent of control [6]: 79%; kinase still bound, per cent of control [7]: 100%; kinase still bound, per cent of control [8]: 87%; kinase still bound, per cent of control [9]: 98%; kinase still bound, per cent of control [10]: 81%; kinase still bound, per cent of control [11]: 100%; kinase still bound, per cent of control [12]: 100%; kinase still bound, per cent of control [13]: 78%; kinase still bound, per cent of control [14]: 53%; kinase still bound, per cent of control [15]: 89%; kinase still bound, per cent of control [16]: 79%; kinase still bound, per cent of control [17]: 69%; kinase still bound, per cent of control [18]: 73%; kinase still bound, per cent of control [19]: 93%; kinase still bound, per cent of control [20]: 95%; kinase still bound, per cent of control [21]: 99%; kinase still bound, per cent of control [22]: 78%; kinase still bound, per cent of control [23]: 91%; kinase still bound, per cent of control [24]: 100%; kinase still bound, per cent of control [25]: 28%; kinase still bound, per cent of control [26]: 81%; kinase still bound, per cent of control [27]: 100%; kinase still bound, per cent of control [28]: 80%; kinase still bound, per cent of control [29]: 96%; kinase still bound, per cent of control [30]: 84%; kinase still bound, per cent of control [31]: 0.1%; kinase still bound, per cent of control [32]: 100%; kinase still bound, per cent of control [33]: 94%; kinase still bound, per cent of control [34]: 64%; kinase still bound, per cent of control [35]: 52%; kinase still bound, per cent of control [36]: 36%; kinase still bound, per cent of control [37]: 100%; kinase still bound, per cent of control [38]: 82%; kinase still bound, per cent of control [39]: 98%; kinase still bound, per cent of control [40]: 100%

How did the kinase still bound, per cent of control [1] turn out when CCN1CCN(Cc2ccc(NC(=O)c3ccc(C)c(/C=C/c4cnc5[nH]ccc5c4OC)c3)cc2C(F)(F)F)CC1 was run?
Its kinase still bound, per cent of control is 98%.

And the kinase still bound, per cent of control [2]?
The kinase still bound, per cent of control was 100%.

And the kinase still bound, per cent of control [3]?
Its kinase still bound, per cent of control is 100%.

What about the kinase still bound, per cent of control [4] of the same molecule?
Its kinase still bound, per cent of control is 15%.

What about the kinase still bound, per cent of control [5] of the same molecule?
Its kinase still bound, per cent of control is 98%.

What about the kinase still bound, per cent of control [6] of the same molecule?
Its kinase still bound, per cent of control is 21%.

What about the kinase still bound, per cent of control [7] of the same molecule?
Its kinase still bound, per cent of control is 0%.

What about the kinase still bound, per cent of control [8] of the same molecule?
Its kinase still bound, per cent of control is 0%.

What about the kinase still bound, per cent of control [9] of the same molecule?
Its kinase still bound, per cent of control is 100%.

And the kinase still bound, per cent of control [10]?
Its kinase still bound, per cent of control is 90%.

What about the kinase still bound, per cent of control [11] of the same molecule?
The kinase still bound, per cent of control was 0%.

What about the kinase still bound, per cent of control [12] of the same molecule?
The kinase still bound, per cent of control was 27%.

What about the kinase still bound, per cent of control [13] of the same molecule?
Its kinase still bound, per cent of control is 0.15%.

What about the kinase still bound, per cent of control [14] of the same molecule?
The kinase still bound, per cent of control was 0.6%.

And the kinase still bound, per cent of control [15]?
Its kinase still bound, per cent of control is 99%.

What about the kinase still bound, per cent of control [16] of the same molecule?
The kinase still bound, per cent of control was 99%.

What about the kinase still bound, per cent of control [17] of the same molecule?
Its kinase still bound, per cent of control is 36%.

What about the kinase still bound, per cent of control [18] of the same molecule?
Its kinase still bound, per cent of control is 74%.

What about the kinase still bound, per cent of control [19] of the same molecule?
Its kinase still bound, per cent of control is 1.4%.

What about the kinase still bound, per cent of control [20] of the same molecule?
Its kinase still bound, per cent of control is 0%.

What about the kinase still bound, per cent of control [21] of the same molecule?
Its kinase still bound, per cent of control is 0.55%.

What about the kinase still bound, per cent of control [22] of the same molecule?
The kinase still bound, per cent of control was 64%.

What about the kinase still bound, per cent of control [23] of the same molecule?
Its kinase still bound, per cent of control is 2.5%.

What about the kinase still bound, per cent of control [24] of the same molecule?
The kinase still bound, per cent of control was 0.95%.

What about the kinase still bound, per cent of control [25] of the same molecule?
Its kinase still bound, per cent of control is 100%.

And the kinase still bound, per cent of control [26]?
The kinase still bound, per cent of control was 100%.

What about the kinase still bound, per cent of control [27] of the same molecule?
Its kinase still bound, per cent of control is 100%.

And the kinase still bound, per cent of control [28]?
The kinase still bound, per cent of control was 100%.

What about the kinase still bound, per cent of control [29] of the same molecule?
Its kinase still bound, per cent of control is 100%.

And the kinase still bound, per cent of control [30]?
Its kinase still bound, per cent of control is 83%.

And the kinase still bound, per cent of control [31]?
Its kinase still bound, per cent of control is 34%.

What about the kinase still bound, per cent of control [32] of the same molecule?
The kinase still bound, per cent of control was 100%.

And the kinase still bound, per cent of control [33]?
The kinase still bound, per cent of control was 42%.

And the kinase still bound, per cent of control [34]?
Its kinase still bound, per cent of control is 100%.

And the kinase still bound, per cent of control [35]?
The kinase still bound, per cent of control was 100%.

And the kinase still bound, per cent of control [36]?
The kinase still bound, per cent of control was 31%.

And the kinase still bound, per cent of control [37]?
The kinase still bound, per cent of control was 21%.

What about the kinase still bound, per cent of control [38] of the same molecule?
The kinase still bound, per cent of control was 55%.

What about the kinase still bound, per cent of control [39] of the same molecule?
Its kinase still bound, per cent of control is 100%.

And the kinase still bound, per cent of control [40]?
Its kinase still bound, per cent of control is 100%.
